Literature values in patent US20070059371A1, “Nanoparticulate ebastine formulations” (Elan Pharma International, Limited, priority 2005, published 2007).

Key:
[1] = mainly as conjugated metabolites

excreted in the urine [1]: 66% | solubility in water: not very soluble in water
Structure (SMILES): CC(C)(C)c1ccc(C(=O)CCCN2CCC(OC(c3ccccc3)c3ccccc3)CC2)cc1 [Ebastine, 4′-tert-butyl-4-[4-(diphenylmethoxy)piperidino]butyrophenone]
